Laboratory results published in US20240124458A1, “POLYMORPHS OF AVAPRITINIB AND METHODS FOR PREPARING THE POLYMORPHS” (Macfarlan Smith Limted, priority 2020, published 2024).

Assay: Gravimetric vapour sorption (GVS) isotherm, with XRPD after analysis
Format: physicochemical
Details: for water uptake (GVS isotherm plot): 25° C./90% RH; for XRPD after GVS analysis (change in form): after GVS cycles, 0-90% RH at 25° C.
Method: XRPD diffractograms were collected on a Bruker D8 diffractometer using Cu Kα radiation (40 kV, 40 mA) and a θ-2θ goniometer fitted with a Ge monochromator. The incident beam passes through a 2.0 mm divergence slit followed by a 0.2 mm anti-scatter slit and knife edge. The diffracted beam passes through an 8.0 mm receiving slit with 2.5° Soller slits followed by the Lynxeye Detector. The software used for data collection and analysis was Diffrac Plus XRD Commander and Diffrac Plus EVA respectively.
Hygroscopicity of a solid material may be determined by means of gravimetric vapour sorption (GVS) analysis, sometimes known by dynamic vapour sorption (DVS) analysis.
The experiment subjects a sample material which is held in a fine wire basket on a microbalance within a temperature and humidity controlled environment (chamber). Using the software, the collected data can then be processed to determine the isotherm points at the increment ranges specified during the experiment and show the overall water uptake of the material.
Sorption isotherms were obtained using a SMS DVS Intrinsic moisture sorption analyser, controlled by DVS Intrinsic Control software. The sample temperature was maintained at 25° C. by the instrument controls. The humidity was controlled by mixing streams of dry and wet nitrogen, with a total flow rate of 200 ml/min. The relative humidity was measured by a calibrated Rotronic probe (dynamic range of 1.0-100% RH), located near the sample. The weight change, (mass relaxation) of the sample as a function of %RH was constantly monitored by a microbalance (accuracy ±0.005 mg).
Typically, 5-30 mg of sample was placed in a tared mesh stainless steel basket under ambient conditions. The sample was loaded and unloaded at 40% RH and 25° C. (typical room conditions). A moisture sorption isotherm was performed as outlined below (2 scans per complete cycle). The standard isotherm was performed at 25° C. at 10% RH intervals over a 0-90% RH range. Typically, a double cycle (4 scans) was carried out. Data analysis was carried out within Microsoft Excel using the DVS Analysis Suite.

water uptake (GVS isotherm plot)	XRPD after GVS analysis (change in form)	Compound
about 0.1 % w/w	unchanged	Cn1cc(-c2cc3c(N4CCN(c5ncc([C@@](C)(N)c6ccc(F)cc6)cn5)CC4)ncnn3c2)cn1 [avapritinib anhydrate, (1S)-1-(4-fluorophenyl)-1-[2-[4-[6-(1-methylpyrazol-4-yl)pyrrolo[2,1-f][1,2,4]triazin-4-yl]piperazin-1-yl]pyrimidin-5-yl]ethanamine]
about 4.0 % w/w	unchanged	Cn1cc(-c2cc3c(N4CCN(c5ncc([C@@](C)(N)c6ccc(F)cc6)cn5)CC4)ncnn3c2)cn1 [avapritinib hydrate, (1S)-1-(4-fluorophenyl)-1-[2-[4-[6-(1-methylpyrazol-4-yl)pyrrolo[2,1-f][1,2,4]triazin-4-yl]piperazin-1-yl]pyrimidin-5-yl]ethanamine]
